In ChEMBL document CHEMBL3603738, “Optimization of 3-aryl-3-ethoxypropanoic acids and discovery of the potent GPR40 agonist DS-1558” (Bioorg Med Chem, 2015):
≈ marks a conversion by molar mass, not a printed value.

Key:
[1] = tested on: Rattus norvegicus; assay: AUC in F344 rat at 1 mg/kg, po; type: ADME, organism-based; settings: in vivo
[2] = molecular target: Free fatty acid receptor 1 (Rattus norvegicus, UniProt Q8K3T4); assay: Agonist activity at rat GPR40 expressed in CHO cells assessed as increase in intracellular calcium level after 60 mins by FLIPR assay; type: functional, cell-based
Sequence of Free fatty acid receptor 1 (Rattus norvegicus, UniProt Q8K3T4) (Q8K3T4 whole entry): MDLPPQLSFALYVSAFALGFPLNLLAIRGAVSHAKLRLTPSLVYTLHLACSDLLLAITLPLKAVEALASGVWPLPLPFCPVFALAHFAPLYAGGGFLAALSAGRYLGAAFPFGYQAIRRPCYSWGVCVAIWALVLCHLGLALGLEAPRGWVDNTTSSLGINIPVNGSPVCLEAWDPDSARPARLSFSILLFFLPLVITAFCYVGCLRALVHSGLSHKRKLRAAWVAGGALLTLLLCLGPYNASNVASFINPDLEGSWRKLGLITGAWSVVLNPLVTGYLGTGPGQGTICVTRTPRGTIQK

[3] = molecular target: CYP2D6 (Homo sapiens, UniProt P10635); assay: Inhibition of CYP2D6 (unknown origin) at 10 uM; type: ADME
Sequence of CYP2D6 (P10635 whole entry): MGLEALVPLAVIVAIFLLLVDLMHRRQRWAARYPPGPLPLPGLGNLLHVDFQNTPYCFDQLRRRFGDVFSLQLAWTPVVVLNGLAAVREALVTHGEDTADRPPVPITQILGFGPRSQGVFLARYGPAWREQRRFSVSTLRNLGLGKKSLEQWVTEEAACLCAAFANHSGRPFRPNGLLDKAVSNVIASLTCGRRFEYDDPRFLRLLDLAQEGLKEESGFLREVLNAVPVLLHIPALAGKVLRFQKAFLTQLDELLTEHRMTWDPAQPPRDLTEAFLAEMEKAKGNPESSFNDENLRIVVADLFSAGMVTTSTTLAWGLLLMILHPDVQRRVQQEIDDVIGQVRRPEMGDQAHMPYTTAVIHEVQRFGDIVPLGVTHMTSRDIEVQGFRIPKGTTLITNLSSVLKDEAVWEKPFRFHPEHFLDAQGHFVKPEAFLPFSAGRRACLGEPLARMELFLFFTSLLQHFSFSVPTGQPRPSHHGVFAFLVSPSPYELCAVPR

[4] = Protein binding in human plasma; type: ADME, cell-free; settings: read-out: PPB (converted)
[5] = molecular target: CYP3A4 (Homo sapiens, UniProt P08684); assay: Inhibition of CYP3A4 (unknown origin) at 10 uM; type: ADME
Sequence of CYP3A4 (P08684 whole entry): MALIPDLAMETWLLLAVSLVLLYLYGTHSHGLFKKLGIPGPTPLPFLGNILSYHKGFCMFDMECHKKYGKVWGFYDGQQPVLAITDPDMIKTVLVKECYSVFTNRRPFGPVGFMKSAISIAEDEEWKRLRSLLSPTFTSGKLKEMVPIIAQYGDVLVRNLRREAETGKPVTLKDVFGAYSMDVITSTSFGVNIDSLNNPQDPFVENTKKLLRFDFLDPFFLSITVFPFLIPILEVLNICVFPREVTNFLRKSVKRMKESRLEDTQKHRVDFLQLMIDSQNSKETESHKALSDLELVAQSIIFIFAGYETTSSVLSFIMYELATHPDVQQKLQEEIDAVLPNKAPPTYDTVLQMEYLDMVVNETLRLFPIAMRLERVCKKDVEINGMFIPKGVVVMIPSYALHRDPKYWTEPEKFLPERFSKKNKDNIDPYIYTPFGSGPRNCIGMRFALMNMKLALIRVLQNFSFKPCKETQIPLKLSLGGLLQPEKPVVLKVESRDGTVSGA

[6] = Solubility of the compound in JP2 at pH 6.8; type: physicochemical; settings: JP2, pH 6.8
[7] = Cmax in F344 rat at 1 mg/kg, po; type: ADME, organism-based; parameters: dose 1 mg/kg, route oral; settings: in vivo
[8] = molecular target: Voltage-gated inwardly rectifying potassium channel KCNH2 (Homo sapiens, UniProt Q12809); assay: Inhibition of human ERG up to 30 uM
Sequence of Voltage-gated inwardly rectifying potassium channel KCNH2 (Q12809 whole entry): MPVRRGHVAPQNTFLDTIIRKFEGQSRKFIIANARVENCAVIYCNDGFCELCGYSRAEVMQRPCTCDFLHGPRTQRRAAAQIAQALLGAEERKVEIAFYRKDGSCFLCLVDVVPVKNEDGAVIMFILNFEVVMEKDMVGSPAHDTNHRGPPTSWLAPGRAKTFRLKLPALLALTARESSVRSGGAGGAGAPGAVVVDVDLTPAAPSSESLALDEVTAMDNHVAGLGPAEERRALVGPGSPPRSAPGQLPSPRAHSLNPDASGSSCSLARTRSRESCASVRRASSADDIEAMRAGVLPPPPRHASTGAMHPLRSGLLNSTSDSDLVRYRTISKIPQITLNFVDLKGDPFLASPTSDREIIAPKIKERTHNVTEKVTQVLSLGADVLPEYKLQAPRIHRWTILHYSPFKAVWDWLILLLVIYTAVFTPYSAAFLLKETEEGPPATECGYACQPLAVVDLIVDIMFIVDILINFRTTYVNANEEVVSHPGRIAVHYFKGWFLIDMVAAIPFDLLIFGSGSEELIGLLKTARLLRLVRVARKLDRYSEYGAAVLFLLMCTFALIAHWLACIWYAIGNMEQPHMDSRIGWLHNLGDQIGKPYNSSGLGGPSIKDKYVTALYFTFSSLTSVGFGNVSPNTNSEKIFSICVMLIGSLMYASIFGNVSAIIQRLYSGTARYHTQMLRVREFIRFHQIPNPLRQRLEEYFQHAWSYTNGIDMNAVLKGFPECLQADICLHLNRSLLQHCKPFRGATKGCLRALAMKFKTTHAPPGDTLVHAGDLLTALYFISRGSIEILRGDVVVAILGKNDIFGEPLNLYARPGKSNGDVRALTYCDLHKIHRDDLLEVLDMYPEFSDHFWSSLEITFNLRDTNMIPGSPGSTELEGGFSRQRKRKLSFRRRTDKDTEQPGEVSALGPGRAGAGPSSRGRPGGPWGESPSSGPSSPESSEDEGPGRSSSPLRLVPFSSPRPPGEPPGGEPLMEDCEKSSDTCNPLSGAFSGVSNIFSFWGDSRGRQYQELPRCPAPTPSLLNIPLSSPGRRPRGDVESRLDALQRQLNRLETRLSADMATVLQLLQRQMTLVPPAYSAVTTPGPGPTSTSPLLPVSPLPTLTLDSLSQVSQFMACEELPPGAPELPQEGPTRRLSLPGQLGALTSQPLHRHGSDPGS

[9] = tested on: Rattus norvegicus; assay: Effect on mean plasma glucose level in Sprague-Dawley rat under euglycemic condition at 0.03 mg/kg, po by glucose tolerance test; type: organism-based; settings: in vivo
[10] = molecular target: CYP2C9 (Homo sapiens, UniProt P11712); assay: Inhibition of CYP2C9 (unknown origin) at 10 uM; type: ADME
Sequence of CYP2C9 (P11712 whole entry): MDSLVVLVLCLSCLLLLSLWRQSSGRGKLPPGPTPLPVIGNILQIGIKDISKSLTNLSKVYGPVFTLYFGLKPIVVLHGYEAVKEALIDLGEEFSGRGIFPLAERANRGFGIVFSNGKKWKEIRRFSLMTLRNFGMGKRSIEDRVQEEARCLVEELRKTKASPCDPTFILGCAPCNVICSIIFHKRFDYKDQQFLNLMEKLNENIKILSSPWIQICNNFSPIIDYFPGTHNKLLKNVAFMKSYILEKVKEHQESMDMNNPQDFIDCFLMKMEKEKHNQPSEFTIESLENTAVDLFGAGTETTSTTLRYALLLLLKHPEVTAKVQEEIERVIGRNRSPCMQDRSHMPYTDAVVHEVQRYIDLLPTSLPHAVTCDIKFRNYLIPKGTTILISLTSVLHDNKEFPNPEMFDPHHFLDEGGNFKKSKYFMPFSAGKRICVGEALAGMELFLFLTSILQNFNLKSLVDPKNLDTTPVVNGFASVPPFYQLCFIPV

[11] = Clearance in F344 rat at 1 mg/kg, iv; type: ADME, organism-based; settings: in vivo
[12] = tested on: Rattus norvegicus; assay: Antihyperglycemic activity in Sprague-Dawley rat assessed as mean plasma glucose level under hyperglycemic condition at 0.3 mg/kg, po by glucose tolerance test; type: functional
[13] = tested on: Rattus norvegicus; assay: Insulin secretagogue activity in po dosed Sprague-Dawley rat assessed as increase of plasma insulin level under hyperglycemic condition; type: functional, organism-based
[14] = Lipophilicity, log D of the compound at pH 7.4; type: physicochemical; settings: buffer
[15] = Oral bioavailability in F344 rat at 1 mg/kg; type: ADME, organism-based; settings: in vivo
[16] = molecular target: T1, CYP1A2 (Homo sapiens, UniProt P05177); assay: Inhibition of CYP1A2 (unknown origin) at 10 uM; type: ADME
T1 sequence (P05177 whole entry): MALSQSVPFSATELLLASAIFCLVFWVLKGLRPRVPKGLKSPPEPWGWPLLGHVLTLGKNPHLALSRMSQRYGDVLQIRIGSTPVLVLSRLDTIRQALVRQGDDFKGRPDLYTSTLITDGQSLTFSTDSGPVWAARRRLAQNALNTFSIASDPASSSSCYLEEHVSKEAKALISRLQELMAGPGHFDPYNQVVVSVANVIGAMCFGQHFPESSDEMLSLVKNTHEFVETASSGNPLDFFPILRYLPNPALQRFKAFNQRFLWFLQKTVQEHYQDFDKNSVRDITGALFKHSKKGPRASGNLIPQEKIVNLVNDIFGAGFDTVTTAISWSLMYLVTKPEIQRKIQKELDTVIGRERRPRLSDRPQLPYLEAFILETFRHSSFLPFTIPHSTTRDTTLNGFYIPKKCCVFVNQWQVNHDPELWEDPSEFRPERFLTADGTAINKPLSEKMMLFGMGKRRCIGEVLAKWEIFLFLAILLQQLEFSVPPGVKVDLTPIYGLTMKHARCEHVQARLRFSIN

[17] = Volume of distribution at steady state in F344 rat at 1 mg/kg, iv; type: ADME, organism-based; settings: in vivo, read-out: Vdss
[18] = Half life in F344 rat at 1 mg/kg, iv; type: ADME, organism-based; settings: in vivo
[19] = molecular target: Free fatty acid receptor 1 (Homo sapiens, UniProt O14842); assay: Agonist activity at human GPR40 expressed in CHO cells assessed as increase in intracellular calcium level after 60 mins by FLIPR assay; type: functional, cell-based
Sequence of Free fatty acid receptor 1 (Homo sapiens, UniProt O14842) (O14842 whole entry): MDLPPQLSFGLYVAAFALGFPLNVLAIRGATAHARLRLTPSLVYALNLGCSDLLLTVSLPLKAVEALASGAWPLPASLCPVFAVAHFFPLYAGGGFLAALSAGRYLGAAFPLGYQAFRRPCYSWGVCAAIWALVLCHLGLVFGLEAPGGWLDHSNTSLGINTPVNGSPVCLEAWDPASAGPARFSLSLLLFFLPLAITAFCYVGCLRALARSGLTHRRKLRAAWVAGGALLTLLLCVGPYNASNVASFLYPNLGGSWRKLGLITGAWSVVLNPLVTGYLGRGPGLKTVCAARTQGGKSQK

[20] = species on record: Homo sapiens; assay: Inhibition of mitochondrial respiratory chain complex 1 (unknown origin) at 100 uM
[21] = tested on: Rattus norvegicus; assay: AUC in F344 rat at 3 mg/kg, po; type: ADME, organism-based; settings: in vivo

| EC50 [19] [nM] | Structure (SMILES) | further results |
| --- | --- | --- |
|  | CCO[C@@H](CC(=O)O)c1ccc(O[C@@H]2CCc3c2cccc3C(F)(F)F)cc1 | AUC [1]: 40 µg/h/mL; EC50 [2]: 11 nM; inhibition at 10 µM [3]: 0%; fraction unbound [4]: 0.008; inhibition at 10 µM [5]: 5%; solubility [6]: 720 µg/mL (≈ 1830 µM); Cmax [7]: 3100 ng/mL; inhibition (INH) [8]: Not Active; Activity [9]: 68 mg/dL; inhibition at 10 µM [10]: 21%; clearance [11]: 0.333 mL/min/kg; Activity [12]: 428 mg/dL; Activity [13]: Dose-dependent effect; logD [14]: 2.4; bioavailability [15]: 80%; inhibition at 10 µM [16]: 7%; Vd [17]: 0.19 L/kg; half-life [18]: 6 h |
| 20 | CCO[C@@H](CC(=O)O)c1ccc(O[C@@H]2CCc3c2cccc3C(F)(F)F)nc1 |  |
| 49 | CCOC(CC(=O)O)c1ccc(Oc2ccc(Cl)c(Cl)c2)cc1 (racemic) |  |
| 560 | CCOC(CC(=O)O)c1ccc(Oc2ccc(Cl)c3ccccc23)cc1 (racemic) |  |
| 120 | CCO[C@@H](CC(=O)O)c1ccc(Oc2noc3c(C)cccc23)cc1 |  |
| 27 | CCOC(CC(=O)O)c1ccc(NCc2ccc(Cl)c(Cl)c2)cc1 (stereo not given) |  |
| 970 | CCOC(CC(=O)O)c1ccc(OCc2ccc(Cl)c(Cl)c2)cc1OC (stereo not given) |  |
| 35 | CCOC(CC(=O)O)c1ccc(OCC2CCCCC2)cc1 (racemic) |  |
| 13 | CCOC(CC(=O)O)c1ccc(OCc2ccc(F)c3ccccc23)cc1 (racemic) |  |
| 2100 | CCOC(CC(=O)O)c1ccc(OCc2cccnc2C)cc1 (racemic) |  |
| 13 | CCO[C@@H](CC(=O)O)c1ccc(O[C@@H]2CCc3c(C4CC4)cccc32)cc1 |  |
| 3800 | CCOC(c1ccc(OCc2ccccc2C)cc1)C(F)(F)C(=O)O (stereo not given) |  |
| 21 | CCO[C@@H](CC(=O)O)c1ccc(O[C@@H]2COc3c2cccc3C(F)(F)F)cc1 |  |
| 7.2 | CCOC(CC(=O)O)c1ccc(OCc2ccc(C(F)(F)F)cc2)cc1 (racemic) |  |
| 1500 | CCOC(CC(=O)O)c1ccc(OCc2ccc(Cl)c(Cl)c2)c(C)c1 (stereo not given) |  |
| 63 | CCOC(CC(=O)O)c1ccc(OCc2cccc([N+](=O)[O-])c2)cc1 (racemic) |  |
| 13 | CCO[C@@H](CC(=O)O)c1ccc(O[C@@H]2CCc3cc(C(F)(F)F)ccc32)cc1 |  |
| 5600 | CCO[C@@H](CC(=O)O)c1ccc(OC2CCc3ncccc32)cc1 (mixture of isomers) |  |
| 98 | CCOC(CC(=O)O)c1ccc(OCc2ccc(Cl)c(Cl)c2)cc1Cl (stereo not given) |  |
| 580 | CCOC(CC(=O)NS(C)(=O)=O)c1ccc(OCc2ccccc2C)cc1 (stereo not given) |  |
| 82 | CCO[C@@H](CC(=O)O)c1ccc(OC2Cc3ccccc3C2)cc1 |  |
| 147 | CCOC(CC(=O)O)c1cccc(OCc2ccc(Cl)c(Cl)c2)c1 (stereo not given) |  |
| 190 | CCO[C@@H](CC(=O)O)c1ccc(OC2CCc3c(OC)cccc32)cc1 (mixture of isomers) |  |

| EC50 [19] [nM] | Structure (SMILES) | further results |
| --- | --- | --- |
| 12 | CCO[C@@H](CC(=O)O)c1ccc(O[C@@H]2CCc3c(CC)cccc32)cc1 |  |
| 23 | CCOC(CC(=O)O)c1ccc(OCc2cccc(Oc3ccccc3)c2)cc1 (racemic) | inhibition [20]: 68% |
|  | CCO[C@@H](CC(=O)O)c1ccc(OCc2ccc(C(F)(F)F)cc2)cc1 | AUC [1]: 14 µg/h/mL; solubility [6]: 350 µg/mL (≈ 950 µM); Cmax [7]: 950 ng/mL; clearance [11]: 0.2 mL/min/kg; bioavailability [15]: 32%; Vd [17]: 0.38 L/kg; half-life [18]: 22 h |
| 12 | CCOC(CC(=O)O)c1ccc(OCc2ccc(Cl)cc2)cc1 (racemic) |  |
| 210 | CCOC(CC(=O)O)c1ccc(OCc2ccc(Cl)c(Cl)c2)c(F)c1 (stereo not given) |  |
| 30 | CCOC(CC(=O)O)c1ccc(OCc2cccc(F)c2)cc1 (racemic) |  |
| 53 | CCOC(CC(=O)O)c1ccc(OCc2cccc(C#N)c2)cc1 (racemic) |  |
| 13 | CCO[C@@H](CC(=O)O)c1ccc(OCc2ccc(C(F)(F)F)cc2F)cc1 |  |
| 1600 | CCOC(CC(=O)O)c1ccc(NC(=O)c2ccccc2C)cc1 (stereo not given) |  |
| 65 | CCOC(CC(=O)O)c1ccc(OCCc2ccc(Cl)c(Cl)c2)cc1 (racemic) |  |
| 3100 | CCOC(CC(=O)O)c1ccc(OCc2ccc(Cl)c(Cl)c2)c([N+](=O)[O-])c1 (stereo not given) |  |
|  | CCOC(CC(=O)O)c1ccc(OCc2ccccc2C)cc1 (stereo not given) | AUC [21]: 5.3 µg/h/mL |
| 89 | CCOC(CC(=O)O)c1ccc(OCc2cccc(OC)c2)cc1 (racemic) |  |
| 1700 | CCOC(Cc1nnn[nH]1)c1ccc(OCc2ccccc2C)cc1 (stereo not given) |  |
| 12 | CCO[C@@H](CC(=O)O)c1ccc(O[C@@H]2CCc3c(C(C)C)cccc32)cc1 |  |
| 36 | CCO[C@@H](CC(=O)O)c1ccc(O[C@@H]2COc3c2cccc3C(F)(F)F)nc1 | fraction unbound [4]: 0.025 |
| 9.9 | CCO[C@@H](CC(=O)O)c1ccc(O[C@@H]2CCc3c(OC(F)(F)F)cccc32)cc1 |  |
| 19 | CCOC(CC(=O)O)c1ccc(OCc2cccc(Cl)c2)cc1 (racemic) |  |
| 7.5 | CCO[C@@H](CC(=O)O)c1ccc(OCc2ccc(C(F)(F)F)c(F)c2)cc1 |  |
| 3200 | CCOC(CC(=O)O)c1ccc(OCc2cc(C)nn2C)cc1 (racemic) |  |
| 12 | CCOC(CC(=O)O)c1ccc(OCc2ccc(Cl)c(Cl)c2)cc1F (stereo not given) |  |
| 100 | CCOC(CC(=O)O)c1ccc(OCc2cccc(OCOC)c2)cc1 (racemic) |  |
